Assay results: ChEMBL document CHEMBL3046652, “Photodimerization of heteroaryl chalcones: comparative antimicrobial activities of chalcones and their photoproducts” (2012)
Converted amounts (≈) assume the structure as drawn.

Columns and labels:
Format in all cases: functional
[1] = system: Fusarium verticillioides; assay: Antimicrobial activity against Fusarium verticillioides at 10 to 60 ug/disk by disk diffusion method
[2] = system: Candida albicans; assay: Antimicrobial activity against Candida albicans at 10 to 60 ug/disk by disk diffusion method
[3] = system: Escherichia coli; assay: Antimicrobial activity against Escherichia coli at 10 to 60 ug/disk by disk diffusion method
[4] = system: Salmonella typhi; assay: Antimicrobial activity against Salmonella enterica subsp. enterica serovar Typhi at 10 to 60 ug/disk by disk diffusion method
[5] = system: Proteus vulgaris; assay: Antimicrobial activity against Proteus vulgaris at 10 to 60 ug/disk by disk diffusion method
[6] = system: Serratia marcescens; assay: Antimicrobial activity against Serratia marcescens at 10 to 60 ug/disk by disk diffusion method
[7] = system: Priestia megaterium; assay: Antimicrobial activity against Bacillus megaterium at 10 to 60 ug/disk by disk diffusion method
[8] = system: Pseudomonas aeruginosa; assay: Antimicrobial activity against Pseudomonas aeruginosa at 10 to 60 ug/disk by disk diffusion method
[9] = system: Citrobacter freundii; assay: Antimicrobial activity against Citrobacter freundii at 10 to 60 ug/disk by disk diffusion method
[10] = system: Aspergillus niger; assay: Antimicrobial activity against Aspergillus niger at 10 to 60 ug/disk by disk diffusion method
[11] = system: Micrococcus luteus; assay: Antimicrobial activity against Micrococcus luteus at 10 to 60 ug/disc by disk diffusion method
[12] = system: Klebsiella pneumoniae; assay: Antimicrobial activity against Klebsiella pneumoniae at 10 to 60 ug/disk by disk diffusion method
[13] = system: Aspergillus oryzae; assay: Antimicrobial activity against Aspergillus oryzae at 10 to 60 ug/disk by disk diffusion method
[14] = system: Fusarium verticillioides; assay: Antimicrobial activity against Fusarium verticillioides at 10 ug/disk by disk diffusion method; conditions: read-out: DIZ
[15] = system: Priestia megaterium; assay: Antimicrobial activity against Bacillus megaterium by disk diffusion method
[16] = system: Escherichia coli; assay: Antimicrobial activity against Escherichia coli by disk diffusion method
[17] = system: Aspergillus niger; assay: Antimicrobial activity against Aspergillus niger at 20 ug/disk by disk diffusion method; conditions: read-out: DIZ
[18] = system: Micrococcus luteus; assay: Antimicrobial activity against Micrococcus luteus at 10 ug/disc by disk diffusion method; conditions: read-out: DIZ
[19] = system: Klebsiella pneumoniae; assay: Antimicrobial activity against Klebsiella pneumoniae by disk diffusion method
[20] = system: Pseudomonas aeruginosa; assay: Antimicrobial activity against Pseudomonas aeruginosa by disk diffusion method
[21] = system: Serratia marcescens; assay: Antimicrobial activity against Serratia marcescens at 20 ug/disk by disk diffusion method; conditions: read-out: DIZ
[22] = system: Aspergillus oryzae; assay: Antimicrobial activity against Aspergillus oryzae at 10 ug/disk by disk diffusion method; conditions: read-out: DIZ
[23] = system: Citrobacter freundii; assay: Antimicrobial activity against Citrobacter freundii at 20 ug/disk by disk diffusion method; conditions: read-out: DIZ
[24] = system: Escherichia coli; assay: Antimicrobial activity against Escherichia coli at 10 ug/disk by disk diffusion method; conditions: read-out: DIZ
[25] = system: Proteus vulgaris; assay: Antimicrobial activity against Proteus vulgaris at 20 ug/disk by disk diffusion method; conditions: read-out: DIZ
[26] = system: Micrococcus luteus; assay: Antimicrobial activity against Micrococcus luteus by disk diffusion method
[27] = system: Proteus vulgaris; assay: Antimicrobial activity against Proteus vulgaris by disk diffusion method
[28] = system: Citrobacter freundii; assay: Antimicrobial activity against Citrobacter freundii by disk diffusion method
[29] = system: Pseudomonas aeruginosa; assay: Antimicrobial activity against Pseudomonas aeruginosa at 10 ug/disk by disk diffusion method; conditions: read-out: DIZ
[30] = system: Serratia marcescens; assay: Antimicrobial activity against Serratia marcescens by disk diffusion method
[31] = system: Priestia megaterium; assay: Antimicrobial activity against Bacillus megaterium at 10 ug/disk by disk diffusion method; conditions: read-out: DIZ
[32] = system: Candida albicans; assay: Antimicrobial activity against Candida albicans at 40 ug/disk by disk diffusion method; conditions: read-out: DIZ
[33] = system: Salmonella typhi; assay: Antimicrobial activity against Salmonella enterica subsp. enterica serovar Typhi by disk diffusion method
[34] = system: Salmonella typhi; assay: Antimicrobial activity against Salmonella enterica subsp. enterica serovar Typhi at 10 ug/disk by disk diffusion method; conditions: read-out: DIZ
[35] = system: Proteus vulgaris; assay: Antimicrobial activity against Proteus vulgaris at 10 ug/disk by disk diffusion method; conditions: read-out: DIZ
[36] = system: Klebsiella pneumoniae; assay: Antimicrobial activity against Klebsiella pneumoniae at 20 ug/disk by disk diffusion method; conditions: read-out: DIZ
[37] = system: Escherichia coli; assay: Antimicrobial activity against Escherichia coli at 30 ug/disk by disk diffusion method; conditions: read-out: DIZ
[38] = system: Serratia marcescens; assay: Antimicrobial activity against Serratia marcescens at 10 ug/disk by disk diffusion method; conditions: read-out: DIZ
[39] = system: Fusarium verticillioides; assay: Antimicrobial activity against Fusarium verticillioides at 30 ug/disk by disk diffusion method; conditions: read-out: DIZ
[40] = system: Candida albicans; assay: Antimicrobial activity against Candida albicans at 10 ug/disk by disk diffusion method; conditions: read-out: DIZ
[41] = system: Aspergillus oryzae; assay: Antimicrobial activity against Aspergillus oryzae at 30 ug/disk by disk diffusion method; conditions: read-out: DIZ
[42] = system: Pseudomonas aeruginosa; assay: Antimicrobial activity against Pseudomonas aeruginosa at 40 ug/disk by disk diffusion method; conditions: read-out: DIZ
[43] = system: Salmonella typhi; assay: Antimicrobial activity against Salmonella enterica subsp. enterica serovar Typhi at 50 ug/disk by disk diffusion method; conditions: read-out: DIZ

Compound | diameter of the inhibition zone (DIZ) [1] [mm] | diameter of the inhibition zone (DIZ) [2] [mm] | diameter of the inhibition zone (DIZ) [3] [mm] | diameter of the inhibition zone (DIZ) [4] [mm] | diameter of the inhibition zone (DIZ) [5] [mm] | diameter of the inhibition zone (DIZ) [6] [mm] | diameter of the inhibition zone (DIZ) [7] [mm] | diameter of the inhibition zone (DIZ) [8] [mm] | diameter of the inhibition zone (DIZ) [9] [mm] | diameter of the inhibition zone (DIZ) [10] [mm] | diameter of the inhibition zone (DIZ) [11] [mm] | diameter of the inhibition zone (DIZ) [12] [mm] | diameter of the inhibition zone (DIZ) [13] [mm] | MIC [15] [µg/mL] | MIC [16] [µg/mL] | zone of inhibition at 20 µg/disc [17] [mm] | zone of inhibition at 10 µg/disc [18] [mm] | MIC [19] [µg/mL] | MIC [20] [µg/mL] | zone of inhibition at 20 µg/disc [23] [mm] | further results
O=C(c1ccco1)C1C(C(=O)c2ccco2)C(c2ccccc2)C1c1ccccc1 (stereo unspecified) | 6 | 5 | 5 | 5 | 7 | 5 | 5 | 5 | 5 | 5 | 7 | 5 | 5 | – | – | – | – | – | – | – | –
OC(/C=C/c1ccco1)(c1ccccc1)C(O)(/C=C/c1ccco1)c1ccccc1 (stereo unspecified) | 7 | 5 | 5 | 5 | 9 | 5 | 7 | 5 | 9 | 9 | 6 | 5 | 5 | – | – | – | – | – | – | – | –
O=C(/C=C/c1ccccc1)c1cccs1 | – | – | – | – | – | – | – | – | – | – | – | 10 | – | 10 (≈ 46.7 µM) | 10 (≈ 46.7 µM) | 7 | 9 | 10 (≈ 46.7 µM) | 10 (≈ 46.7 µM) | 7 | zone of inhibition at 10 µg/disc [14]: 9 mm; zone of inhibition at 20 µg/disc [21]: 9 mm; zone of inhibition at 10 µg/disc [22]: 9 mm; zone of inhibition at 10 µg/disc [24]: 5 mm; zone of inhibition at 20 µg/disc [25]: 11 mm; MIC [26]: 10 µg/mL (≈ 46.7 µM); MIC [27]: 10 µg/mL (≈ 46.7 µM); MIC [28]: 10 µg/mL (≈ 46.7 µM); zone of inhibition at 10 µg/disc [29]: 5 mm; MIC [30]: 10 µg/mL (≈ 46.7 µM); zone of inhibition at 10 µg/disc [31]: 10 mm; zone of inhibition at 40 µg/disc [32]: 9 mm; MIC [33]: 10 µg/mL (≈ 46.7 µM); zone of inhibition at 10 µg/disc [34]: 12 mm
O=C(c1ccc[nH]1)C1C(C(=O)c2ccc[nH]2)C(c2ccccc2)C1c1ccccc1 (stereo unspecified) | 5 | 5 | 5 | 5 | 5 | 5 | 5 | 6 | 5 | 5 | 5 | 5 | 5 | – | – | – | – | – | – | – | –
O=C(/C=C/c1ccccc1)c1ccc[nH]1 | – | – | – | – | – | – | – | – | – | – | – | – | – | 10 (≈ 50.7 µM) | 10 (≈ 50.7 µM) | 11 | 7 | 10 (≈ 50.7 µM) | 10 (≈ 50.7 µM) | 6 | zone of inhibition at 10 µg/disc [35]: 5 mm; zone of inhibition at 20 µg/disc [36]: 8 mm; zone of inhibition at 30 µg/disc [37]: 7 mm; zone of inhibition at 10 µg/disc [38]: 9 mm; zone of inhibition at 30 µg/disc [39]: 8 mm; MIC [26]: 10 µg/mL (≈ 50.7 µM); MIC [27]: 10 µg/mL (≈ 50.7 µM); MIC [28]: 10 µg/mL (≈ 50.7 µM); MIC [30]: 10 µg/mL (≈ 50.7 µM); zone of inhibition at 10 µg/disc [40]: 7 mm; zone of inhibition at 10 µg/disc [31]: 13 mm; zone of inhibition at 30 µg/disc [41]: 9 mm; zone of inhibition at 40 µg/disc [42]: 7 mm; zone of inhibition at 50 µg/disc [43]: 7 mm; MIC [33]: 10 µg/mL (≈ 50.7 µM)
OC(/C=C/c1cccs1)(c1ccccc1)C(O)(/C=C/c1cccs1)c1ccccc1 (stereo unspecified) | 5 | 5 | 5 | 7 | 5 | 5 | 5 | 5 | 5 | 5 | 8 | 7 | 5 | – | – | – | – | – | – | – | –
